Data set [1] in a line: log P by HPLC on reversed-phase column (C18), EEC Directive 79/831 Annex V.A8. The text has this: Called log P (HCOOH) in the table.
Called log P (neutral) in the table.

The next data set concerns Phaedon cochleariae. The data set is described as follows: Phaedon cochleariae spray test. As to conditions: after 7 days, beetle larvae killed. The format is in vivo. Here is the method: Phaedon cochleariae-Spray Test
Solvent: 78.0 parts by weight of acetone
• 1.5 parts by weight of dimethylformamide Emulsifier: alkylaryl polyglycol ether
To produce a suitable preparation of active compound, 1 part by weight of active compound is dissolved using the stated parts by weight of solvent and made up with water containing an emulsifier concentration of 1000 ppm until the desired concentration is attained. To produce further test concentrations, the preparation is diluted with emulsifier-containing water.
After 7 days, the efficacy in % is determined. 100% means that all the beetle larvae have been killed; 0% means that no beetle larvae have been killed.

Where [2] appears, read: reversed-phase HPLC column (C18), pH 2.7, logP-acidic, LC-MS acidic range, pH 2.7 (HCOOH), C18, 55° C.
The mark [3] stands for this setting: reversed-phase HPLC column (C18), pH 7.8, log P (neutral), preparation examples, neutral range, pH 7.8.
[4] abbreviates: reversed-phase HPLC column (C18), pH 7.8, logP-neutral, LC-MS neutral range, pH 7.8, C18, 55° C.
The mark [5] stands for this setting: LC-MS acidic range, pH 2.7 (HCOOH), C18, 55° C.
Setting [6] is: LC-MS neutral range, pH 7.8, C18, 55° C.

Broadly, the chromatographic logP is a lipophilicity value derived from retention on a column. The low end stands for a more hydrophilic compound, the high end for a more lipophilic compound. With `CCS(=O)(=O)c1ccc(C(=O)OC)nc1-c1nc2cc(C(F)(F)F)ncc2n1C` [Example 12, Methyl 5-(ethylsulphonyl)-6-[3-methyl-6-(trifluoromethyl)-3H-imidazo[4,5-c]pyridin-2-yl]pyridine-2-carboxylate], the chromatographic logP in data set [1] (setting [2]), in data set [1] (setting [3]) and in data set [1] (setting [4]) was 2.17 each time.

`CCNC(=S)c1ccc(S(=O)(=O)CC)c(-c2nc3cc(C(F)(F)F)ncc3n2C)n1` [Example 35] showed a logP-acidic in data set [1] (pH 2.7) of 3.17. Further, the logP-neutral in data set [1] (pH 7.8) is given as 3.14.

Consider `CCS(=O)(=O)c1ccc(NC(=O)Cc2ccccc2)nc1-c1nc2cc(C(F)(F)F)ncc2n1C` [Example 68], for which the efficacy in % in the data set on Phaedon cochleariae (500 g/ha) was found to be 100%.

In data set [1] (setting [3]), `CCS(=O)(=O)c1ccc(F)nc1-c1nc2cc(C(F)(F)F)ncc2n1C` [Ex. XIII-2, 2-[3-(Ethylsulphonyl)-6-fluoropyridin-2-yl]-3-methyl-6-(trifluoromethyl)-3H-imidazo[4,5-c]pyridine] returned a chromatographic logP of 2.3.

On to `CCSc1ccc(NC(=O)C2CC2)nc1-c1nc2cc(C(F)(F)F)ncc2n1C` [Example 1], for which, in data set [1] (pH 2.7), the logP-acidic amounted to 2.80. In data set [1] (pH 7.8), the logP-neutral was 2.79. The same compound yielded an efficacy in % in the data set with Phaedon cochleariae (500 g/ha) of 100%.

Consider `CCSc1ccc(S(=O)(=O)CC)c(-c2nc3cc(C(F)(F)F)ncc3n2C)n1` [Example 5, 2-[6-(Ethylsulphanyl)-3-(ethylsulphonyl)pyridin-2-yl]-3-methyl-6-(trifluoromethyl)-3H-imidazo[4,5-c]pyridine], for which the chromatographic logP in data set [1] (setting [2]) amounted to 3.19; in data set [1] (setting [3]), 3.14; in data set [1] (setting [4]), 3.14.

As to `CCS(=O)(=O)c1ccc(SCc2ccccc2)nc1-c1nc2cc(C(F)(F)F)ncc2n1C` [Example 30, 2-[6-(Benzylsulphanyl)-3-(ethylsulphonyl)pyridin-2-yl]-3-methyl-6-(trifluoromethyl)-3H-imidazo[4,5-c]pyridine], the values for the chromatographic logP in data set [1] (pH 2.7) and in data set [1] (pH 7.8) were 3.81 and 3.72, respectively.

In data set [1] (pH 2.7), `CCSc1ccc(NC(=O)CC)nc1-c1nc2cc(C(F)(F)F)ncc2n1C` [Example 27] yielded a logP-acidic of 2.73. In data set [1] (pH 7.8), the logP-neutral is 2.62. The efficacy in % with Phaedon cochleariae (500 g/ha) is recorded as 100%.

In the case of `CCS(=O)(=O)c1ccc(Sc2ccccc2)nc1-c1nc2cc(C(F)(F)F)ncc2n1C` [Example 42], the logP-acidic in data set [1] (setting [5]) is listed as 3.68. Further, the logP-neutral in data set [1] (setting [6]) is given as 3.64.

Compound `CCS(=O)(=O)c1ccc(C(=O)O)nc1-c1nc2cc(C(F)(F)F)ncc2n1C` [5-(Ethylsulphonyl)-6-[3-methyl-6-(trifluoromethyl)-3H-imidazo[4,5-c]pyridin-2-yl]pyridine-2-carboxylic acid] displayed a chromatographic logP in data set [1] (setting [3]) of 0.76.

In data set [1] (pH 2.7), `CCS(=O)(=O)c1ccc(S(=O)(=O)NC)nc1-c1nc2cc(C(F)(F)F)ncc2n1C` [Example 47] came in with a logP-acidic of 2.15. In data set [1] (pH 7.8), this compound came in with a logP-neutral of 2.08.

In the case of `CCS(=O)(=O)c1ccc(NC(=O)c2cccnc2)nc1-c1nc2cc(C(F)(F)F)ncc2n1C` [Example 54], in data set [1] (pH 2.7), the logP-acidic is 2.08. Besides, in data set [1] (pH 7.8), the logP-neutral came out at 2.12. The same compound showed an efficacy in % in the data set on Phaedon cochleariae (500 g/ha) of 100%.

`CCS(=O)(=O)c1ccc(S(C)(=O)=O)nc1-c1nc2cc(C(F)(F)F)ncc2n1C` [Example 45] displayed a logP-acidic in data set [1] (pH 2.7) of 2.08. Besides, the logP-neutral in data set [1] (pH 7.8) is given as 2.08.

`CCNS(=O)(=O)c1ccc(S(=O)(=O)CC)c(-c2nc3cc(C(F)(F)F)ncc3n2C)n1` [Example 48] yielded a logP-acidic in data set [1] (pH 2.7) of 2.36. This compound also yielded a logP-neutral in data set [1] (pH 7.8) of 2.30.

Compound `CCS(=O)(=O)c1ccc(N(S(C)(=O)=O)S(C)(=O)=O)nc1-c1nc2cc(C(F)(F)F)ncc2n1C` [Example 25] had a logP-acidic in data set [1] (pH 2.7) of 2.47.

Consider `CCS(=N)(=O)c1ccc(S(=O)(=O)CC)c(-c2nc3cc(C(F)(F)F)ncc3n2C)n1` (stereo not shown) [Example 41, 2-[6-(S-Ethylsulphonimidoyl)-3-(ethylsulphonyl)pyridin-2-yl]-3-methyl-6-(trifluoromethyl)-3H-imidazo[4,5-c]pyridine], for which the results for the chromatographic logP in data set [1] (setting [2]), in data set [1] (setting [3]) and in data set [1] (setting [4]) were 1.78, 1.79 and 1.79, respectively.

`CCS(=O)(=O)c1ccc(C(N)=O)nc1-c1nc2cc(C(F)(F)F)ncc2n1C` [Example 46] came in with a logP-acidic in data set [1] (setting [5]) of 1.78. The compound further showed a logP-neutral in data set [1] (setting [6]) of 1.68. Moreover, the efficacy in % in the data set on Phaedon cochleariae (500 g/ha) worked out at 100%.

`CCS(=O)(=O)c1ccc(NC(=O)c2ccc(Cl)cc2)nc1-c1nc2cc(C(F)(F)F)ncc2n1C` [Example 73]: the logP-acidic in data set [1] (pH 2.7) was determined as 3.37. In addition, the logP-neutral in data set [1] (pH 7.8) amounted to 3.37. Moreover, the efficacy in % with Phaedon cochleariae (100 g/ha) worked out at 100%.

In data set [1] (pH 2.7), `CCS(=O)(=O)c1ccc(Oc2cc(C(F)(F)F)n[nH]2)nc1-c1nc2cc(C(F)(F)F)ncc2n1C` [Example 17] came in with a logP-acidic of 2.77. Further, the logP-neutral in data set [1] (pH 7.8) is reported as 2.69.

Turning to `CCNC(=O)c1ccc(S(=O)(=O)CC)c(-c2nc3cc(C(F)(F)F)ncc3n2C)n1` [Example 32], the logP-acidic in data set [1] (pH 2.7) came to 2.29. In data set [1] (pH 7.8), this compound displayed a logP-neutral of 2.22. Moreover, the efficacy in % in the data set on Phaedon cochleariae (500 g/ha) was determined as 100%.

For the compound `CCS(=O)(=O)c1ccc(S(=O)(=O)NC(C)C)nc1-c1nc2cc(C(F)(F)F)ncc2n1C` [Example 49, 5-(Ethylsulphonyl)-N-isopropyl-6-[3-methyl-6-(trifluoromethyl)-3H-imidazo[4,5-c]pyridin-2-yl]pyridine-2-sulphonamide], the chromatographic logP was 2.56 in data set [1] (setting [2]), 2.49 in data set [1] (setting [3]) and 2.49 in data set [1] (setting [4]).

In data set [1] (pH 2.7), `CCS(=O)(=O)c1ccc(S(=O)(=O)N(C)C)nc1-c1nc2cc(C(F)(F)F)ncc2n1C` [Example 50] returned a logP-acidic of 2.54. In data set [1] (pH 7.8), this compound had a logP-neutral of 2.47.

In data set [1] (pH 2.7), `CCS(=O)(=O)c1ccc([S+]([O-])Cc2ccccc2)nc1-c1nc2cc(C(F)(F)F)ncc2n1C` (stereo not shown) [Example 39] displayed a logP-acidic of 2.66. In data set [1] (pH 7.8), this compound showed a logP-neutral of 2.66.

As to `CCS(=O)(=O)c1ccc(NC(C)=O)nc1-c1nc2cc(C(F)(F)F)ncc2n1C` [N-[5-Ethylsulphonyl-6-[3-methyl-6-(trifluoromethyl)imidazo[4,5-c]pyridin-2-yl]-2-pyridyl]acetamide], the chromatographic logP in data set [1] (setting [3]) came out at 2.01.

For the compound `CCSc1ccc(F)nc1-c1nc2cc(C(F)(F)F)ncc2n1C` [Ex. XI-2, 2-[3-(Ethylsulphanyl)-6-fluoropyridin-2-yl]-3-methyl-6-(trifluoromethyl)-3H-imidazo[4,5-c]pyridine], the chromatographic logP in data set [1] (setting [3]) came to 2.73.

For the compound `CCSc1ccc(NC(=O)c2ccccc2)nc1-c1nc2cc(C(F)(F)F)ncc2n1C` [Example 19], the logP-acidic in data set [1] (pH 2.7) is reported as 3.36.

Compound `CCSc1ccc(NC(=O)C(F)(F)F)nc1-c1nc2cc(C(F)(F)F)ncc2n1C` [Example 6] returned a logP-acidic in data set [1] (pH 2.7) of 3.18. The compound also showed an efficacy in % in the data set with Phaedon cochleariae (500 g/ha) of 100%.

As for `CCS(=O)(=O)c1ccc(SC)nc1-c1nc2cc(C(F)(F)F)ncc2n1C` [Example 28, 2-[3-(Ethylsulphonyl)-6-(methylsulphanyl)pyridin-2-yl]-3-methyl-6-(trifluoromethyl)-3H-imidazo[4,5-c]pyridine], the chromatographic logP in data set [1] (setting [2]) is 2.81; in data set [1] (setting [3]), 2.75; in data set [1] (setting [4]), 2.75.

`Cn1c(-c2nc(F)ccc2F)nc2cc(C(F)(F)F)ncc21` [Ex. IX-2, 2-(3,6-Difluoropyridin-2-yl)-3-methyl-6-(trifluoromethyl)-3H-imidazo[4,5-c]pyridine] returned a chromatographic logP in data set [1] (setting [3]) of 2.11.

Values taken from patent US10654845B2, “2-(het)aryl-substituted fused bicyclic heterocycle derivatives as pesticides” (BAYER CROPSCIENCE AKTIENGESELLSCHAFT, priority 2015, dated 2020).
